Assay results as given in US6750245B2, “C7 carbamate substituted taxanes” (FSU Research Foundation, Inc., priority 2000, dated 2004).
pIC50: −log10 of the molar value.

Tested on: HCT116
Test: In vitro cytotoxicity measured by the cell colony formation assay
Format: cell-based
Conditions: HCT116 cells; drug concentration producing 50% inhibition of colony formation; incubated with drugs 72 h at 37° C.; colonies counted after 7 days; read-out: IN VITRO ID 50 (nm) HCT116
Description: In Vitro Cytotoxicity Measured by the Cell Colony Formation Assay
Four hundred cells (HCT116) were plated in 60 mm Petri dishes containing 2.7 mL of medium (modified McCoy's 5a medium containing 10% fetal bovine serum and 100 units/mL penicillin and 100 µg/mL streptomycin). The cells were incubated in a CO2 incubator at 37° C. for 5 h for attachment to the bottom of Petri dishes. The compounds identified in Example 2 were made up fresh in medium at ten times the final concentration, and then 0.3 mL of this stock solution was added to the 2.7 mL of medium in the dish. The cells were then incubated with drugs for 72 h at 37° C. At the end of incubation the drug-containing media were decanted, the dishes were rinsed with 4 mL of Hank's Balance Salt Solution (HBSS), 5 mL of fresh medium was added, and the dishes were returned to the incubator for colony formation. The cell colonies were counted using a colony counter after incubation for 7 days.

SMILES	pIC50
CC(=O)O[C@@]12CO[C@@H]1C[C@H](OC(=O)NC1CCCCC1)[C@@]1(C)C(=O)[C@H](O)C3=C(C)[C@@H](OC(=O)[C@H](O)[C@@H](NC(=O)OC(C)(C)C)c4ccco4)C[C@@](O)([C@@H](OC(=O)c4ccccc4)C12)C3(C)C (some centres unmarked) [Compound 5373]	> 8.00
CCNC(=O)O[C@H]1C[C@H]2OC[C@@]2(OC(C)=O)C2[C@H](OC(=O)c3ccccc3)[C@]3(O)C[C@H](OC(=O)[C@H](O)[C@@H](NC(=O)OC(C)(C)C)c4ccco4)C(C)=C([C@@H](O)C(=O)[C@@]21C)C3(C)C (some centres unmarked) [Compound 5393]	> 9.00
CC(=O)O[C@@]12CO[C@@H]1C[C@H](OC(=O)Nc1ccc(F)c(F)c1)[C@@]1(C)C(=O)[C@H](O)C3=C(C)[C@@H](OC(=O)[C@H](O)[C@@H](NC(=O)OC(C)(C)C)c4ccco4)C[C@@](O)([C@@H](OC(=O)c4ccccc4)C12)C3(C)C (some centres unmarked) [Compound 5415]	> 9.00
CC(=O)O[C@@]12CO[C@@H]1C[C@H](OC(=O)NC(C)(C)C)[C@@]1(C)C(=O)[C@H](O)C3=C(C)[C@@H](OC(=O)[C@H](O)[C@@H](NC(=O)OC(C)(C)C)c4ccco4)C[C@@](O)([C@@H](OC(=O)c4ccccc4)C12)C3(C)C (some centres unmarked) [Compound 5454]	> 8.00
CC(=O)O[C@@]12CO[C@@H]1C[C@H](OC(=O)Nc1ccc(F)c(F)c1)[C@@]1(C)C(=O)[C@H](O)C3=C(C)[C@@H](OC(=O)[C@H](O)[C@@H](NC(=O)C=C(C)C)c4ccco4)C[C@@](O)([C@@H](OC(=O)c4ccccc4)C12)C3(C)C (some centres unmarked) [Compound 5522]	> 9.00
CC(=O)O[C@@]12CO[C@@H]1C[C@H](OC(=O)Nc1ccccc1)[C@@]1(C)C(=O)[C@H](O)C3=C(C)[C@@H](OC(=O)[C@H](O)[C@@H](NC(=O)C=C(C)C)c4ccco4)C[C@@](O)([C@@H](OC(=O)c4ccccc4)C12)C3(C)C (some centres unmarked) [Compound 5535, N-Debenzoyl-N-isobutenyl-3′-desphenyl-3′-(2-furyl)-7-phenylcarbamoyl taxol]	> 9.00
CCNC(=O)O[C@H]1C[C@H]2OC[C@@]2(OC(C)=O)C2[C@H](OC(=O)c3ccccc3)[C@]3(O)C[C@H](OC(=O)[C@H](O)[C@@H](NC(=O)C=C(C)C)c4ccco4)C(C)=C([C@@H](O)C(=O)[C@@]21C)C3(C)C (some centres unmarked) [Compound 5588]	> 9.00
CCCNC(=O)O[C@H]1C[C@H]2OC[C@@]2(OC(C)=O)C2[C@H](OC(=O)c3ccccc3)[C@]3(O)C[C@H](OC(=O)[C@H](O)[C@@H](NC(=O)OC(C)(C)C)c4ccco4)C(C)=C([C@@H](O)C(=O)[C@@]21C)C3(C)C (some centres unmarked) [Compound 5665]	< 7.30
C/C=C/C(=O)N[C@@H](c1ccco1)[C@@H](O)C(=O)O[C@H]1C[C@@]2(O)[C@@H](OC(=O)c3ccccc3)C3[C@](C)(C(=O)[C@H](O)C(=C1C)C2(C)C)[C@@H](OC(=O)Nc1ccccc1)C[C@H]1OC[C@@]31OC(C)=O (some centres unmarked) [Compound 5757]	> 8.00
CC=CC(=O)NC(c1ccco1)C(O)C(=O)OC1CC2(O)C(OC(=O)c3ccccc3)C3C4(OC(C)=O)COC4CC(OC(=O)Nc4ccc(F)c(F)c4)C3(C)C(=O)C(O)C(=C1C)C2(C)C (centres unmarked) [Compound 5800]	> 8.00
C/C=C/C(=O)N[C@@H](c1ccco1)[C@@H](O)C(=O)O[C@H]1C[C@@]2(O)[C@@H](OC(=O)c3ccccc3)C3[C@](C)(C(=O)[C@H](O)C(=C1C)C2(C)C)[C@@H](OC(=O)NCC)C[C@H]1OC[C@@]31OC(C)=O (some centres unmarked) [Compound 5822]	> 8.00
C/C=C/C(=O)N[C@@H](c1ccco1)[C@@H](O)C(=O)O[C@H]1C[C@@]2(O)[C@@H](OC(=O)c3ccccc3)C3[C@](C)(C(=O)[C@H](O)C(=C1C)C2(C)C)[C@@H](OC(=O)NC1CCCCC1)C[C@H]1OC[C@@]31OC(C)=O (some centres unmarked) [Compound 5895]	> 9.00
CCC(C)(C)OC(=O)N[C@@H](c1ccco1)[C@@H](O)C(=O)O[C@H]1C[C@@]2(O)[C@@H](OC(=O)c3ccccc3)C3[C@](C)(C(=O)[C@H](O)C(=C1C)C2(C)C)[C@@H](OC(=O)Nc1ccccc1)C[C@H]1OC[C@@]31OC(C)=O (some centres unmarked) [Compound 6399]	> 8.00
CCC(C)(C)OC(=O)N[C@@H](c1ccco1)[C@@H](O)C(=O)O[C@H]1C[C@@]2(O)[C@@H](OC(=O)c3ccccc3)C3[C@](C)(C(=O)[C@H](O)C(=C1C)C2(C)C)[C@@H](OC(=O)Nc1ccc(F)c(F)c1)C[C@H]1OC[C@@]31OC(C)=O (some centres unmarked) [Compound 6404]	> 8.00
